Test results reported in patent US4992450A, “Piperidine opioid antagonists” (Eli Lilly and Company, priority 1989, dated 1991).
Where a name gives a salt, the structure may show the parent alone. Read-outs that look alike come from different tables or passages of the source.

Assays:
[1] = target: T1, kappa receptors (Rattus norvegicus, UniProt P34975); assay: Rat diuresis assay, antagonism of bremazocine-induced urination; assay type: in vivo, male Long-Evans hooded rats; conditions: sc, rats, s.c., urinary output reduced to 50% of effect of 0.08 mg/kg bremazocine alone
T1 construct: sixty male Long-Evans hooded rats; from tissue; host or cells: whole living male Long-Evans hooded rats (in vivo)
T1 sequence (P34975 whole entry): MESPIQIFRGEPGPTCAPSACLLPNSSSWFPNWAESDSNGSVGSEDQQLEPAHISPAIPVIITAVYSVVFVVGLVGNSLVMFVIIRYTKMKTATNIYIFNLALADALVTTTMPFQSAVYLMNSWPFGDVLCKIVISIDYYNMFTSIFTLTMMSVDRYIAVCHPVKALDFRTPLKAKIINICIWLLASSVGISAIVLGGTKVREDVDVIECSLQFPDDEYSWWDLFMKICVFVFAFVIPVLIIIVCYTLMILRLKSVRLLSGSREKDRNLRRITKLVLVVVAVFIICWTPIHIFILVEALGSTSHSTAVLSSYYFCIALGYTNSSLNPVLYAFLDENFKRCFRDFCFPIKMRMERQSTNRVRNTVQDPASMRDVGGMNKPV
Experimental: As such, the compounds of the invention were also evaluated in a rat diuresis assay conducted according to the following procedure described by Leander et al. in Drug Development Research 4:421-427 (1984) in an effort to further establish the ability of the present compounds to block kappa receptors.
According to this procedure, sixty male Long-Evans hooded rats (Charles River Breeding Laboratories, Portage, Mich.) weighing between about 300 and 500 grams each were housed either individually or in pairs in a temperature-controlled (23° C.) colony room which was illuminated between 6:00 A.M. and 6:00 P.M. Rodent chow and tap water were continuously available except during the measurement of urine output. The animals were used repeatedly, but no more frequently than twice a week.
The animals were then injected with various doses of the test compounds. To measure urine output, the animals were removed from the home cages, weighed, injected and placed in metabolism cages for 5 hr. Excreted urine was funneled into graduated cylinders. Cumulative urine volumes were determined at designated time intervals, usually at 2 and 5 hr after injection.
The compounds which are salt forms were dissolved in distilled water. If necessary, the compounds were dissolved in distilled water with the aid of either a few drops of lactic acid or hydrochloric acid and gentle warming. All injections were s.c. in a volume of 1 ml/kg of body weight. During tests for antagonism, two injections were given, one on each side of the body.
In the Table, column 1 provides the Example Number of the compound tested; column 2, the amount of compound in mg/kg necessary to reduce the urinary output to 50% of the effect produced by 0.08 mg/kg of bremazocine alone two hours after injection of bremazocine and the test compound; and column 3, the amount of compound in mg/kg necessary to reduce the urinary output to 50% of the effect produced by 0.08 mg/kg of bremazocine alone five hours after injection of bremazocine and the test compound.

[2] = target: T2, mu receptor (Mus musculus, UniProt P42866); assay: Mouse writhing assay, antagonism of morphine analgesia (mu); assay type: in vivo, CF-1 male mice; conditions: sc, read-out: Mu AD50
T2 construct: Five CF-1 male mice (Charles River, Portage, Mich.); from tissue; host or cells: whole living CF-1 male mice (in vivo)
T2 sequence (P42866 whole entry): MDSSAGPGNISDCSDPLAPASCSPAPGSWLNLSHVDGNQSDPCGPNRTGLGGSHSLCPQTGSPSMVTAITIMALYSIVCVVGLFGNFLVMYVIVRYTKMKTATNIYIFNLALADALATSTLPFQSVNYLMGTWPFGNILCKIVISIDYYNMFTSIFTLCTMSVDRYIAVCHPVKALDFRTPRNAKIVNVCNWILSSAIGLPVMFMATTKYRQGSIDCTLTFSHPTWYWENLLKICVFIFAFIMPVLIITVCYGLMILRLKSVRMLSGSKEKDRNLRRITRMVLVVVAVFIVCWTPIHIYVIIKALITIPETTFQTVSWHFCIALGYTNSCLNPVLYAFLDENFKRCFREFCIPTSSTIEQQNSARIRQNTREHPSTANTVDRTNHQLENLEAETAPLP

[3] = target: T3, kappa receptor (Mus musculus, UniProt P33534); assay: in vivo; design: species or system CF-1 male mice; conditions: sc, read-out: Kappa AD50
T3 construct: Five CF-1 male mice (Charles River, Portage, Mich.); from tissue; host or cells: whole living CF-1 male mice (in vivo)
T3 sequence (P33534 whole entry): as the sequence (P34975 whole entry) above, with E11D, A17S, P51S, V308A counted along it

[4] = test system: meal fed obese Zucker rats; assay: Food consumption assay in meal fed obese Zucker rats; assay type: in vivo; conditions: Rattus norvegicus, sc, 4 h, amount to decrease food consumption 20% during first four hours
Description: The following assay was employed to evaluate the ability of the compounds of the invention to effect food and water consumption of meal fed obese Zucker rats.
According to this procedure, 3-4 month old obese Zucker rats were trained to eat food daily from 8:00 A.M. to 4:00 P.M. only, such that the body weight gain approximates that if the rats were fed ad libitum. These rats were allowed to consume water at all times. Four groups of rats with four rats in each group, two female and two male, were formed. One group served as control for the other three groups each day. Each of the other groups were given a subcutaneous dose of the compound to be evaluated. The test compound was formulated in physiological saline containing 10% dimethylsulfoxide by volume.
Animals remained drug free for 4 days before the next test. Food and water consumption of each rat were measured for the first four hours. A test on one compound was run for three consecutive days. The drug effect was expressed as the percent of the control for that test day.
In the Table, column 1 gives the Example Number of the compound evaluated; and column 2 provides the ED20 in mg/kg, wherein ED20 represents the amount of compound evaluated in mg/kg necessary to decrease food consumption 20% during the first four hours of the experiment.

[5] = 2 h, two hours after injection, read-out: AD50 Two Hours
[6] = 5 h, five hours after injection, read-out: AD50 Five Hours

CCCCCCN1CCC(C)(c2cccc(O)c2)C(C)C1 (stereo not drawn) [Example 22, trans-(±)-1-(n-Hexyl)-3,4-dimethyl-4-(3-hydroxyphenyl)piperidine hydrochloride]
ED50 [1, 5]: 1.31 mg/kg | ED50 [1, 6]: 0.7 mg/kg | ED50 [2]: 0.05 mg/kg | ED50 [3]: 0.11 mg/kg | ED20 [4]: 0.78 mg/kg

CC1CN(CC2CCCC2)CCC1(C)c1cccc(O)c1 (stereo not drawn) [Example 5, trans-(±)-1-(Cyclopentylmethyl)-3,4-dimethyl-4-(3-hydroxyphenyl)piperidine hydrochloride]
ED50 [1, 5]: 1.91 mg/kg | ED50 [1, 6]: 0.92 mg/kg | ED50 [2]: 1.01 mg/kg | ED50 [3]: 0.54 mg/kg

CC1CN(CCc2cccs2)CCC1(C)c1cccc(O)c1 (stereo not drawn) [Example 38, trans-(±)-1-[2-(2-Thienyl)ethyl]-3,4-dimethyl-4-(3-hydroxyphenyl)piperidine hydrochloride]
ED50 [1, 6]: 2 mg/kg | ED50 [2]: 0.25 mg/kg | ED50 [3]: 0.25 mg/kg

C[C@H]1CN(CCC(O)C2CCCC2)CC[C@@]1(C)c1cccc(O)c1 (relative stereo) [Example 18, trans-(±)-1-[R,S-(1-Cyclopentylpropanol-3-yl)]-3,4-dimethyl-4-(3-hydroxyphenyl)piperidine hydrochloride]
ED50 [2]: 0.04 mg/kg | ED50 [3]: 0.08 mg/kg | ED20 [4]: 0.07 mg/kg

CC1CN(CCCC2CCCC2)CCC1(C)c1cccc(O)c1 (stereo not drawn) [Example 9, trans-(±)-1-(3-Cyclopentylpropyl)-3,4-dimethyl-4-(3-hydroxyphenyl)piperidine hydrochloride]
ED50 [1, 5]: 2.4 mg/kg | ED50 [1, 6]: 0.79 mg/kg | ED50 [2]: 0.12 mg/kg | ED50 [3]: 0.13 mg/kg | ED20 [4]: 1.25 mg/kg

CCCCCCCN1CCC(C)(c2cccc(O)c2)C(C)C1 (stereo not drawn) [Example 8, trans-(±)-1-(n-Heptyl)-3,4-dimethyl-4-(3-hydroxyphenyl)piperidine hydrochloride]
ED50 [1, 5]: 3.77 mg/kg | ED50 [1, 6]: 3.33 mg/kg | ED50 [2]: 0.21 mg/kg | ED50 [3]: 0.64 mg/kg | ED20 [4]: 0.44 mg/kg

C[C@@H]1CN(CCCc2cccs2)CC[C@]1(C)c1cccc(O)c1 (stereo in doubt) [Example 37, trans-(-)-1-[3-(2-Thienyl)propyl]-3,4-dimethyl-4-(3-hydroxyphenyl)piperidine hydrochloride]
ED50 [1, 5]: 2.92 mg/kg | ED50 [1, 6]: 1.66 mg/kg | ED50 [2]: 0.24 mg/kg | ED50 [3]: 0.65 mg/kg | ED20 [4]: 0.19 mg/kg

C[C@H]1CN(CC[C@@H](O)C2CCCCC2)CC[C@@]1(C)c1cccc(O)c1 [Example 25, trans-(+)-1-[R-(3-Hydroxy-3-cyclohexylpropyl)]-3,4-dimethyl-4-(3-hydroxyphenyl)piperidine]
ED50 [2]: 0.03 mg/kg | ED50 [3]: 0.36 mg/kg | ED20 [4]: 0.13 mg/kg

CC(C)CCCCN1CC[C@@](C)(c2cccc(O)c2)[C@@H](C)C1 (stereo in doubt) [Example 28, trans-(+)-1-(5-Methylhexyl)-3,4-dimethyl-4-(3-hydroxyphenyl)piperidine hydrochloride]
ED50 [2]: 0.08 mg/kg | ED50 [3]: 0.22 mg/kg | ED20 [4]: 0.12 mg/kg

O=C1CC[C@@]2(O)[C@H]3Cc4ccc(O)c5c4[C@@]2(CCN3CC2CC2)[C@H]1O5 [Compound F, naltrexone, reference compound]
ED20 [4]: 2.05 mg/kg

CC1CN(CCCc2cccs2)CCC1(C)c1cccc(O)c1 (stereo not drawn) [Example 35, trans-(±)-1-[3-(2-Thienyl)propyl]-3,4-dimethyl-4-(3-hydroxyphenyl)piperidine hydrochloride]
ED50 [1, 5]: 2.2 mg/kg | ED50 [1, 6]: 1.04 mg/kg | ED50 [2]: 0.22 mg/kg | ED50 [3]: 0.3 mg/kg | ED20 [4]: 0.08 mg/kg

CC1CN(CCC(C)(C)C)CCC1(C)c1cccc(O)c1 (stereo not drawn) [Example 12, trans-(±)-1-(3,3-Dimethylbutyl)-3,4-dimethyl-4-(3-hydroxyphenyl)piperidine hydrochloride]
ED50 [1, 5]: 7.89 mg/kg | ED50 [1, 6]: 8.13 mg/kg | ED50 [2]: 0.56 mg/kg | ED50 [3]: 0.42 mg/kg

CCCC(O)CCN1CC[C@@](C)(c2cccc(O)c2)[C@@H](C)C1 (relative stereo) [Example 30, trans-(±)-1-[R,S-(3-Hydroxyhexyl)]-3,4-dimethyl-4-(3-hydroxyphenyl)piperidine hydrochloride]
ED50 [2]: 0.11 mg/kg | ED50 [3]: 0.47 mg/kg

CCCCCC(=O)CCN1CCC(C)(c2cccc(O)c2)C(C)C1 (stereo not drawn) [Example 32, trans-(±)-1-(3-Oxo-n-octyl)-3,4-dimethyl-4-(3-hydroxyphenyl)piperidine hydrochloride]
ED50 [2]: 0.17 mg/kg | ED50 [3]: 3.5 mg/kg

CC(C)CCCCN1CC[C@](C)(c2cccc(O)c2)[C@H](C)C1 (stereo in doubt) [Example 29, trans-(-)-1-(5-Methylhexyl)-3,4-dimethyl-4-(3-hydroxyphenyl)piperidine hydrochloride]
ED50 [2]: 0.35 mg/kg | ED50 [3]: 0.89 mg/kg | ED20 [4]: 0.31 mg/kg

CC1CN(CCC2CCCCC2)CCC1(C)c1cccc(O)c1 (stereo not drawn) [Example 13, trans-(±)-1-(2-Cyclohexylethyl)-3,4-dimethyl-4-(3-hydroxyphenyl)piperidine hydrochloride]
ED50 [2]: 0.1 mg/kg | ED50 [3]: 0.12 mg/kg | ED20 [4]: 4.56 mg/kg

C=CCN1CC[C@]23c4c5ccc(O)c4O[C@H]2C(=O)CC[C@@]3(O)[C@H]1C5 [Compound E, naloxone, reference compound]
ED20 [4]: 1.4 mg/kg

CC(C)C(O)CCN1CC[C@@](C)(c2cccc(O)c2)[C@@H](C)C1 (relative stereo) [Example 20, trans-(±)-1-[R,S-(3-Hydroxy-4-methylpentyl)]-3,4-dimethyl-4-(3-hydroxyphenyl)piperidine hydrochloride]
ED50 [2]: 0.14 mg/kg | ED50 [3]: 0.35 mg/kg | ED20 [4]: 0.91 mg/kg

C[C@H]1CN(CCC(=O)c2ccccc2)CC[C@@]1(C)c1cccc(O)c1 (relative stereo) [Compound C, 3-[4β-(3-Hydroxyphenyl)-3β,4α-dimethylpiperidino]propiophenone maleate, reference compound]
ED50 [2]: 0.14 mg/kg | ED50 [3]: 4.5 mg/kg | ED20 [4]: 3.72 mg/kg

CCCCCN1CCC(C)(c2cccc(O)c2)C(C)C1 (stereo not drawn) [Example 14, trans-(±)-1-(n-Pentyl)-3,4-dimethyl-4-(3-hydroxyphenyl)piperidine hydrochloride]
ED50 [1, 5]: 0.78 mg/kg | ED50 [1, 6]: 0.69 mg/kg | ED50 [2]: 0.37 mg/kg | ED50 [3]: 0.6 mg/kg | ED20 [4]: 4.47 mg/kg

CCCCCCN1CC[C@](C)(c2cccc(O)c2)[C@H](C)C1 (stereo in doubt) [Example 2, trans-(-)-1-(n-Hexyl)-3,4-dimethyl-4-(3-hydroxyphenyl)piperidine hydrochloride]
ED50 [2]: 0.21 mg/kg | ED50 [3]: 0.29 mg/kg | ED20 [4]: 1.25 mg/kg

CC1CN(CCC(=O)C2CCCCC2)CCC1(C)c1cccc(O)c1 (stereo not drawn) [Example 33, trans-(±)-1-(3-Oxo-3-cyclohexylpropyl)-3,4-dimethyl-4-(3-hydroxyphenyl)piperidine hydrochloride]
ED50 [2]: 0.12 mg/kg | ED50 [3]: 0.26 mg/kg

CCCCCCN1CC[C@@](C)(c2cccc(O)c2)[C@@H](C)C1 (stereo in doubt) [Example 1, trans-(+)-1-(n-Hexyl)-3,4-dimethyl-4-(3-hydroxyphenyl)piperidine hydrochloride]
ED50 [2]: 0.26 mg/kg | ED50 [3]: 0.22 mg/kg | ED20 [4]: 0.08 mg/kg

C[C@H]1CN(CCCc2cccs2)CC[C@@]1(C)c1cccc(O)c1 (stereo in doubt) [Example 36, trans-(+)-1-[3-(2-Thienyl)propyl]-3,4-dimethyl-4-(3-hydroxyphenyl)piperidine]
ED50 [1, 5]: 4.65 mg/kg | ED50 [1, 6]: 1.65 mg/kg | ED50 [2]: 0.05 mg/kg | ED50 [3]: 0.11 mg/kg | ED20 [4]: 0.05 mg/kg
